Source: article PMC6943434, “Novel Homo-Bivalent and Polyvalent Compounds Based on Ligustrazine and Heterocyclic Ring as Anticancer Agents” (Molecules, 2019)
Read-outs that look alike come from different tables or passages of the source.

How the values were obtained:
[1] = test system: HeLa (cervical cancer cell line); assay: MTT cell viability assay, HeLa; format: cell-based; settings: Homo sapiens, 48 h, read-out: Antiproliferative Activity IC50 ± SEM, HeLa
Experimental: (§1) The tested cells were obtained from Shanghai Institute of Biochemistry and Cell Biology of the Chinese Academy of Sciences (Shanghai, China). HeLa and Hep G2 cell lines were cultured in Dulbecco’s modified Eagle’s medium (DMEM; gibco, Life Technologies, Carlsbad, CA, USA) supplemented with 10% fetal bovine serum (FBS; Biological Industries), 100 U/mL penicillin-streptomycin (PS; gibco, Life Technologies, Carlsbad, CA, USA). MCF-7 and A549 cell lines were maintained in RPMI-1640 media (gibco, Life Technologies, Carlsbad, CA, USA) supplemented with 10% FBS and 100 U/mL PS. FaDu cell lines were cultured in minimum essential medium (MEM; Gibco, Life Technologies, Carlsbad, CA, USA) supplemented with 10% FBS and 100 U/mL PS. MCF 10A cell lines were maintained in Mammary MEGM kit (Lonza/Clonetics) supplemented with 100 ng/mL cholera toxin (Sigma, Shanghai, China). Cell lines were grown at 37 °C in a humidified atmosphere of 5% CO2.
(§2) The growth-inhibitory effects against HeLa, Hep G2, MCF-7, FaDu, and A549 cancer cells and normal cell lines MCF 10A were determined by MTT assay. […] Cells were seeded in 96 well plates at a density of 1 × 10^4 cells per well and incubated for 24 h at 37 °C in a humidified atmosphere of 5% CO2. The cells were then incubated with various concentrations of drugs for 48 h in a 5% CO2 incubator at 37 °C. After treatment with 1 mg/mL 3-(4,5-dimethylthiazol-2-yl)-2,5-diphenyltetrazolium bromide (MTT) solution for 4 h, the formazan crystals were dissolved in 100 µL DMSO in each well. Plates were read on a microplate reader (Thermo Varioskan Flash 3001) at 490 nm. The experiment was performed in triplicate. The inhibitory concentration at 50% (IC50) was calculated based on concentration-inhibition relationships via regression using SPSS software (Version 17.0).

[2] = test system: Hep G2 (hepatocarcinoma cell line); assay: MTT cell viability assay, Hep G2; format: cell-based; settings: Homo sapiens, HepG2, 48 h, read-out: Antiproliferative Activity IC50 ± SEM, Hep G2
Experimental: as §1, §2

[3] = test system: MCF-7 (breast cancer cell line); assay: MTT cell viability assay, MCF-7; format: cell-based; settings: Homo sapiens, MCF7, 48 h, read-out: Antiproliferative Activity IC50 ± SEM, MCF-7
Experimental: as §1, §2

[4] = test system: FaDu (head and neck squamous carcinoma cell line); assay: MTT cell viability assay, FaDu; format: cell-based, human; settings: for IC50: 48 h, MTT; for SI: selectivity index: SI = IC50 (MCF 10A)/IC50 (FaDu)
Experimental: as §1, §2

[5] = test system: A549 (epithelial cancer cell line); assay: MTT cell viability assay, A549; format: cell-based; settings: Homo sapiens, 48 h, read-out: Antiproliferative Activity IC50 ± SEM, A549
Experimental: as §1, §2

[6] = test system: MCF 10A (normal mammary epithelial cell); assay: MTT cell viability assay, MCF 10A; format: cell-based; settings: Homo sapiens, 48 h, normal cells, read-out: Antiproliferative Activity IC50 ± SEM, MCF 10A
[7] = Homo sapiens, FaDu, read-out: Antiproliferative Activity IC50 ± SEM, FaDu
[8] = read-out: Antiproliferative Activity IC50 ± SEM, FaDu

| SMILES | IC50 [1] [µM] | IC50 [2] [µM] | IC50 [3] [µM] | IC50 [4, 7] [nM] | IC50 [5] [µM] | IC50 [6] [µM] | SI: selectivity index [4] | IC50 [4, 8] [nM] | IC50 ([4]; Homo sapiens, FaDu, values in nM, read-out: IC50 in FaDu cells) [nM] |
| --- | --- | --- | --- | --- | --- | --- | --- | --- | --- |
| Cc1nc(C)c(CN2CCN(Cc3nc(C)c(C)nc3C)CC2)nc1C [Compound 6h, 1,4-Bis((3,5,6-Trimethylpyrazin-2-yl)Methyl)Piperazine] | > 100 | > 100 | > 100 | > 100000 | > 100 | > 100 |  |  |  |
| O=C(NCCCCCCCCCCNC(=O)c1ccc2nc[nH]c2c1)c1ccc2nc[nH]c2c1 [Compound 19e, N,N′-(Decane-1,10-Diyl)Bis(1H-Benzo[d]Imidazole-6-Carboxamide)] | > 20 | > 20 | > 20 | 8740 ± 440 | > 20 | > 20 | >2.29 |  |  |
| O=C(NCCCCCCCCCCNC(=O)c1cccnc1)c1cccnc1 [Compound 10e, N,N′-(Decane-1,10-Diyl)Dinicotinamide] | > 100 | > 100 | > 100 |  | 2.94 ± 0.25 | 38.6 ± 2.48 | 154.40 |  |  |
| Nc1ccccc1C(=O)NCCCCCCCCCCNC(=O)c1ccccc1N [Compound 30e, N,N′-(Decane-1,10-Diyl)Bis(2-Aminobenzamide)] | > 20 | > 20 | > 20 | > 20000 | > 20 | > 20 |  |  |  |
| Cc1nc(C)c(CN(CCCN(Cc2nc(C)c(C)nc2C)Cc2nc(C)c(C)nc2C)Cc2nc(C)c(C)nc2C)nc1C [Compound 6b, N^1,N^1,N^3,N^3-Tetrakis((3,5,6-Trimethylpyrazin-2-yl)Methyl)Propane-1,3-Diamine] | > 100 | > 100 | > 100 | > 100000 | > 100 | > 100 |  |  |  |
| Cn1cc(C(=O)NCCCCCCCCCCNC(=O)c2cn(C)c3ccccc23)c2ccccc21 [Compound 23e, N,N′-(Decane-1,10-Diyl)Bis(1-Methyl-1H-Indole-3-Carboxamide)] | > 20 | > 20 | > 20 | < 1000 | > 20 | > 20 | >31.35 | 638 ± 89 |  |
| COc1ccc(/C=C/C(=O)NCCCCCCCCCCNC(=O)/C=C/c2ccc(OC)c(OC)c2)cc1OC [Compound 27e, (2E,2′E)-N,N′-(Decane-1,10-Diyl)Bis(3-(3,4-Dimethoxyphenyl)Acrylamide)] | > 20 | > 20 | > 20 | 4620 ± 539 | > 20 | > 20 | >4.33 |  |  |
| Nc1ccc(C(=O)NCCCCCCCCCCNC(=O)c2ccc(N)cc2)cc1 [Compound 31e, N,N′-(Decane-1,10-Diyl)Bis(4-Aminobenzamide)] | > 20 | > 20 | > 20 | 5590 ± 628 | > 20 | > 20 | >3.58 |  |  |
| O=C(NCCCCCCCCCCNC(=O)c1cc2ccccc2o1)c1cc2ccccc2o1 [Compound 21e, N,N′-(Decane-1,10-Diyl)Bis(Benzofuran-2-Carboxamide)] | > 20 | > 20 | > 20 | < 1000 | > 20 | > 20 | >30.08 | 665 ± 28 | 697 |
| Cc1nc(C)c(CN(CCCCN(Cc2nc(C)c(C)nc2C)Cc2nc(C)c(C)nc2C)Cc2nc(C)c(C)nc2C)nc1C [Compound 6c, N^1,N^1,N^4,N^4-Tetrakis((3,5,6-Trimethylpyrazin-2-yl)Methyl)Butane-1,4-Diamine] | > 100 | > 100 | > 100 | > 100000 | > 100 | > 100 |  |  |  |
| O=C(NCCCCCCCCCCNC(=O)c1ccc2ccccc2c1)c1ccc2ccccc2c1 [Compound 12e, N,N′-(Decane-1,10-Diyl)Bis(2-Naphthamide)] | > 100 | > 100 | > 100 | 1330 ± 70 | 8.77 ± 0.47 | > 100 | >75.19 |  |  |
| O=C(NCCCCCCCCCCNC(=O)c1ccc2ncccc2c1)c1ccc2ncccc2c1 [Compound 18e, N,N′-(Decane-1,10-Diyl)Bis(Quinoline-6-Carboxamide)] | > 20 | > 20 | > 20 | < 1000 | > 20 | > 20 | >28.69 | 697 ± 21 |  |
| O=C(NCCCCCCCCCCNC(=O)c1ccc2cc[nH]c2c1)c1ccc2cc[nH]c2c1 [Compound 24e, N,N′-(Decane-1,10-Diyl)Bis(1H-Indole-6-Carboxamide)] | > 20 | > 20 | > 20 | 5300 ± 366 | > 20 | > 20 | >3.78 |  |  |
| O=C(/C=C/c1ccccc1)NCCOCCOCCNC(=O)/C=C/c1ccccc1 [Compound 9j, (2E,2′E)-N,N′-((Ethane-1,2-Diylbis(Oxy))Bis(Ethane-2,1-Diyl))Bis(3-Phenylacrylamide)] | > 20 | > 20 | > 20 | > 20000 | > 20 | > 20 |  |  |  |
| Cc1nc(C)c(CN(CCCCCCCCN(Cc2nc(C)c(C)nc2C)Cc2nc(C)c(C)nc2C)Cc2nc(C)c(C)nc2C)nc1C [Compound 6e, N^1,N^1,N^8,N^8-Tetrakis((3,5,6-Trimethylpyrazin-2-yl)Methyl)Octane-1,8-Diamine] | 62.7 ± 4.19 | 50.8 ± 1.35 | 66.36 ± 0.05 | 49500 ± 1610 | > 100 | 85.4 ± 2.28 | 1.73 |  |  |
| Cc1nc(C)c(CN(CCO)Cc2nc(C)c(C)nc2C)nc1C [Compound 6i, 2-(Bis((3,5,6-Trimethylpyrazin-2-yl)Methyl)Amino)Ethanol] | > 100 | > 100 | > 100 | > 100000 | > 100 | > 100 |  |  |  |
| Cc1nc(C)c(C(=O)NCCCNC(=O)c2nc(C)c(C)nc2C)nc1C [Compound 8a, N,N′-(Propane-1,3-Diyl)Bis(3,5,6-Trimethylpyrazine-2-Carboxamide)] | > 100 | > 100 | > 100 | > 100000 | > 100 | > 100 |  |  |  |
| O=C(NCCCCCCCCCCNC(=O)c1cnccn1)c1cnccn1 [Compound 16e, N,N′-(Decane-1,10-Diyl)Bis(Pyrazine-2-Carboxamide)] | > 100 | > 100 | > 100 | 88100 ± 1370 | > 100 | > 100 |  |  |  |
| O=C(/C=C/c1ccccc1)NCCCCCCCCCCCCNC(=O)/C=C/c1ccccc1 [Compound 9f, (2E,2′E)-N,N′-(Dodecane-1,12-Diyl)Bis(3-Phenylacrylamide)] | > 20 | > 20 | > 20 | 27 ± 2 | > 20 | > 20 | >740.74 |  |  |
| O=C(/C=C/c1ccccc1)NCCCCCCCCCCNC(=O)/C=C/c1ccccc1 [Compound 9e, (2E,2′E)-N,N′-(Decane-1,10-Diyl)Bis(3-Phenylacrylamide)] | > 100 | > 100 | > 100 |  | 11.3 ± 0.81 | > 100 | >1851.85 |  |  |
| O=C(NCCCCCCCCCCNC(=O)c1cnc2ccccc2c1)c1cnc2ccccc2c1 [Compound 17e, N,N′-(Decane-1,10-Diyl)Bis(Quinoline-3-Carboxamide)] | > 20 | > 20 | > 20 |  | > 20 | > 20 | >84.75 |  |  |
| Cc1nc(C)c(C)nc1C [TMP, 2,3,5,6-tetramethylpyrazine, reference compound] | > 100 | > 100 | > 100 | > 100000 | > 100 | > 100 |  |  |  |
